Patent US20100267561A1, “HERBICIDAL PYRIDAZINONE DERIVATIVES” (priority 2007, published 2010)

Tests used:
Assay in all cases: Test B pre-/postemergence plant response
Type in all cases: in vivo
[1] = test system: surinam grass (Brachiaria decumbens); details: Preemergence; for Surinam Grass plant response rating: 8 g ai/ha, scale 0 to 100
Procedure, shortened: (§1)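 Preemergence and postemergence (plants 2-18 cm, 1- to 4-leaf stage) applications used test chemicals in a non-phytotoxic solvent with surfactant. Plants were held in a greenhouse 13 to 15 days, then rated visually against controls on a 0-100 scale (0 no effect, 100 complete control).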

[2] = test system: common ragweed (Ambrosia elation); details: Preemergence; for Ragweed plant response rating: 8 g ai/ha
Procedure, shortened: as §1

[3] = test system: goosegrass (Eleusine indica); details: Preemergence; for Goosegrass plant response rating: 8 g ai/ha
Procedure, shortened: as §1

[4] = test system: woolly cupgrass (Eriochloa villosa); details: Preemergence; for Cupgrass, Woolly plant response rating: 8 g ai/ha
Procedure, shortened: as §1

[5] = test system: morningglory (Ipomoea coccinea); details: Preemergence; for Morningglory plant response rating: 8 g ai/ha
Procedure, shortened: as §1

[6] = test system: wild oat (Avena fatua); details: Preemergence; for Oat, Wild plant response rating: 8 g ai/ha
Procedure, shortened: as §1

[7] = test system: downy bromegrass (Bromus tectorum); details: Preemergence; for Bromegrass, Downy plant response rating: 8 g ai/ha
Procedure, shortened: as §1

[8] = test system: corn (Zea mays); details: Preemergence; for Corn plant response rating: 8 g ai/ha
Procedure, shortened: as §1

[9] = test system: giant foxtail (Setaria faberii); details: Preemergence; for Foxtail, Giant plant response rating: 8 g ai/ha
Procedure, shortened: as §1

[10] = test system: pigweed (Amaranthus retroflexus); details: Preemergence; for Pigweed plant response rating: 8 g ai/ha
Procedure, shortened: as §1

[11] = test system: lambsquarters (Chenopodium album); details: Preemergence; for Lambsquarters plant response rating: 8 g ai/ha
Procedure, shortened: as §1

[12] = test system: blackgrass (Alopecurus myosuroides); details: Preemergence; for Blackgrass plant response rating: 8 g ai/ha
Procedure, shortened: as §1

[13] = test system: catchweed bedstraw (Galium aparine); details: Preemergence; for Galium plant response rating: 8 g ai/ha
Procedure, shortened: as §1

[14] = test system: green foxtail (Setaria viridis); details: Preemergence; for Foxtail, Green plant response rating: 8 g ai/ha
Procedure, shortened: as §1

[15] = 16 g ai/ha, scale 0 to 100 (0 no effect, 100 complete control)
[16] = 31 g ai/ha, scale 0 to 100 (0 no effect, 100 complete control)
[17] = 62 g ai/ha, 0 to 100 scale, 0 no effect, 100 complete control
[18] = 31 g ai/ha, 0 to 100 scale, 0 no effect, 100 complete control

Cc1ccc(-c2ccc(Cl)cc2)cc1-c1c(O)cnn(C)c1=O [Compound 46]
Plant response rating, Surinam Grass [1, 15]: 0
Plant response rating, Surinam Grass [1, 16]: 0
Plant response rating, Surinam Grass [1, 17]: 0
Surinam Grass plant response rating [1]: 0
Plant response rating, Ragweed [2, 15]: 0
Plant response rating, Ragweed [2, 16]: 0
Plant response rating, Ragweed ([2]; 62 g ai/ha, scale 0 to 100): 0
Ragweed plant response rating ([2]; scale 0 to 100): 0
Plant response rating, Goosegrass [3, 15]: 100
Plant response rating, Goosegrass [3, 18]: 100
Plant response rating, Goosegrass ([3]; 62 g ai/ha, scale 0 to 100): 100
Goosegrass plant response rating ([3]; scale 0 to 100): 0
Plant response rating, Cupgrass, Woolly [4, 15]: 0
Plant response rating, Cupgrass, Woolly [4, 18]: 85
Plant response rating, Cupgrass, Woolly ([4]; 62 g ai/ha, scale 0 to 100): 98
Cupgrass, Woolly plant response rating ([4]; scale 0 to 100): 0
Plant response rating, Morningglory [5, 15]: 0
Plant response rating, Morningglory [5, 16]: 0
Plant response rating, Morningglory ([5]; 62 g ai/ha, scale 0 to 100): 0
Morningglory plant response rating ([5]; scale 0 to 100): 0
Plant response rating, Oat, Wild [6, 15]: 0
Plant response rating, Oat, Wild [6, 16]: 0
Plant response rating, Oat, Wild ([6]; 62 g ai/ha, scale 0 to 100): 35
Oat, Wild plant response rating ([6]; scale 0 to 100): 0
Plant response rating, Bromegrass, Downy [7, 15]: 0
Plant response rating, Bromegrass, Downy [7, 18]: 0
Plant response rating, Bromegrass, Downy ([7]; 62 g ai/ha, scale 0 to 100): 5
Bromegrass, Downy plant response rating ([7]; scale 0 to 100): 0
Plant response rating, Corn [8, 15]: 0
Plant response rating, Corn [8, 18]: 0
Plant response rating, Corn ([8]; 62 g ai/ha, scale 0 to 100): 0
Corn plant response rating ([8]; scale 0 to 100): 0
Plant response rating, Foxtail, Giant [9, 15]: 15
Plant response rating, Foxtail, Giant [9, 18]: 95
Plant response rating, Foxtail, Giant ([9]; 62 g ai/ha, scale 0 to 100): 100
Foxtail, Giant plant response rating ([9]; scale 0 to 100): 0
Plant response rating, Pigweed [10, 15]: 0
Plant response rating, Pigweed [10, 16]: 60
Plant response rating, Pigweed ([10]; 62 g ai/ha, scale 0 to 100): 100
Pigweed plant response rating ([10]; scale 0 to 100): 0
Plant response rating, Lambsquarters [11, 15]: 0
Plant response rating, Lambsquarters [11, 18]: 0
Plant response rating, Lambsquarters ([11]; 62 g ai/ha, scale 0 to 100): 0
Lambsquarters plant response rating ([11]; scale 0 to 100): 0
Plant response rating, Blackgrass [12, 15]: 30
Plant response rating, Blackgrass [12, 18]: 40
Plant response rating, Blackgrass ([12]; 62 g ai/ha, scale 0 to 100): 85
Blackgrass plant response rating ([12]; scale 0 to 100): 0
Plant response rating, Galium [13, 15]: 0
Plant response rating, Galium [13, 18]: 0
Plant response rating, Galium ([13]; 62 g ai/ha, scale 0 to 100): 0
Galium plant response rating ([13]; scale 0 to 100): 0
Plant response rating, Foxtail, Green [14, 15]: 10
Plant response rating, Foxtail, Green [14, 18]: 80
Plant response rating, Foxtail, Green ([14]; 62 g ai/ha, scale 0 to 100): 100
Foxtail, Green plant response rating ([14]; scale 0 to 100): 0

Cc1cc(-c2ccc(Cl)cc2)nn1-c1c(OS(=O)(=O)c2cccc3ccccc23)cnn(C)c1=O [Compound 47]
Plant response rating, Surinam Grass [1, 15]: 95
Plant response rating, Surinam Grass [1, 16]: 98
Plant response rating, Surinam Grass [1, 17]: 100
Surinam Grass plant response rating [1]: 80
Plant response rating, Ragweed [2, 15]: 0
Plant response rating, Ragweed [2, 16]: 0
Plant response rating, Ragweed ([2]; 62 g ai/ha, scale 0 to 100): 0
Ragweed plant response rating ([2]; scale 0 to 100): 0
Plant response rating, Goosegrass [3, 15]: 98
Plant response rating, Goosegrass [3, 18]: 100
Plant response rating, Goosegrass ([3]; 62 g ai/ha, scale 0 to 100): 100
Goosegrass plant response rating ([3]; scale 0 to 100): 70
Plant response rating, Cupgrass, Woolly [4, 15]: 100
Plant response rating, Cupgrass, Woolly [4, 18]: 100
Plant response rating, Cupgrass, Woolly ([4]; 62 g ai/ha, scale 0 to 100): 100
Cupgrass, Woolly plant response rating ([4]; scale 0 to 100): 98
Plant response rating, Morningglory [5, 15]: 0
Plant response rating, Morningglory [5, 16]: 0
Plant response rating, Morningglory ([5]; 62 g ai/ha, scale 0 to 100): 0
Morningglory plant response rating ([5]; scale 0 to 100): 0
Plant response rating, Oat, Wild [6, 15]: 0
Plant response rating, Oat, Wild [6, 16]: 0
Plant response rating, Oat, Wild ([6]; 62 g ai/ha, scale 0 to 100): 70
Oat, Wild plant response rating ([6]; scale 0 to 100): 0
Plant response rating, Bromegrass, Downy [7, 15]: 0
Plant response rating, Bromegrass, Downy [7, 18]: 0
Plant response rating, Bromegrass, Downy ([7]; 62 g ai/ha, scale 0 to 100): 90
Bromegrass, Downy plant response rating ([7]; scale 0 to 100): 0
Plant response rating, Corn [8, 15]: 20
Plant response rating, Corn [8, 18]: 85
Plant response rating, Corn ([8]; 62 g ai/ha, scale 0 to 100): 95
Corn plant response rating ([8]; scale 0 to 100): 0
Plant response rating, Foxtail, Giant [9, 15]: 98
Plant response rating, Foxtail, Giant [9, 18]: 100
Plant response rating, Foxtail, Giant ([9]; 62 g ai/ha, scale 0 to 100): 100
Foxtail, Giant plant response rating ([9]; scale 0 to 100): 0
Plant response rating, Pigweed [10, 16]: 0
Plant response rating, Pigweed ([10]; 62 g ai/ha, scale 0 to 100): 0
Pigweed plant response rating ([10]; scale 0 to 100): 0
Plant response rating, Lambsquarters [11, 18]: 0
Plant response rating, Lambsquarters ([11]; 62 g ai/ha, scale 0 to 100): 65
Lambsquarters plant response rating ([11]; scale 0 to 100): 0
Plant response rating, Blackgrass [12, 15]: 70
Plant response rating, Blackgrass [12, 18]: 100
Plant response rating, Blackgrass ([12]; 62 g ai/ha, scale 0 to 100): 100
Blackgrass plant response rating ([12]; scale 0 to 100): 70
Plant response rating, Galium [13, 15]: 0
Plant response rating, Galium [13, 18]: 0
Galium plant response rating ([13]; scale 0 to 100): 0
Plant response rating, Foxtail, Green [14, 15]: 80
Plant response rating, Foxtail, Green [14, 18]: 100
Plant response rating, Foxtail, Green ([14]; 62 g ai/ha, scale 0 to 100): 100
Foxtail, Green plant response rating ([14]; scale 0 to 100): 5

Cc1cc(-c2ccc(Cl)cc2)nn1-c1c(OS(=O)(=O)C(C)C)cnn(C)c1=O [Compound 50]
Plant response rating, Surinam Grass [1, 15]: 40
Plant response rating, Surinam Grass [1, 16]: 90
Plant response rating, Surinam Grass [1, 17]: 98
Surinam Grass plant response rating [1]: 20
Plant response rating, Ragweed [2, 15]: 0
Plant response rating, Ragweed [2, 16]: 0
Plant response rating, Ragweed ([2]; 62 g ai/ha, scale 0 to 100): 0
Ragweed plant response rating ([2]; scale 0 to 100): 0
Plant response rating, Goosegrass [3, 15]: 80
Plant response rating, Goosegrass [3, 18]: 98
Plant response rating, Goosegrass ([3]; 62 g ai/ha, scale 0 to 100): 100
Goosegrass plant response rating ([3]; scale 0 to 100): 0
Plant response rating, Cupgrass, Woolly [4, 15]: 75
Plant response rating, Cupgrass, Woolly [4, 18]: 98
Plant response rating, Cupgrass, Woolly ([4]; 62 g ai/ha, scale 0 to 100): 100
Cupgrass, Woolly plant response rating ([4]; scale 0 to 100): 20
Plant response rating, Morningglory [5, 15]: 0
Plant response rating, Morningglory [5, 16]: 0
Plant response rating, Morningglory ([5]; 62 g ai/ha, scale 0 to 100): 30
Morningglory plant response rating ([5]; scale 0 to 100): 0
Plant response rating, Oat, Wild [6, 15]: 40
Plant response rating, Oat, Wild [6, 16]: 40
Plant response rating, Oat, Wild ([6]; 62 g ai/ha, scale 0 to 100): 70
Oat, Wild plant response rating ([6]; scale 0 to 100): 20
Plant response rating, Bromegrass, Downy [7, 15]: 0
Plant response rating, Bromegrass, Downy [7, 18]: 0
Plant response rating, Bromegrass, Downy ([7]; 62 g ai/ha, scale 0 to 100): 0
Bromegrass, Downy plant response rating ([7]; scale 0 to 100): 0
Plant response rating, Corn [8, 15]: 0
Plant response rating, Corn ([8]; 62 g ai/ha, scale 0 to 100): 90
Corn plant response rating ([8]; scale 0 to 100): 0
Plant response rating, Foxtail, Giant [9, 15]: 98
Plant response rating, Foxtail, Giant [9, 18]: 100
Plant response rating, Foxtail, Giant ([9]; 62 g ai/ha, scale 0 to 100): 100
Foxtail, Giant plant response rating ([9]; scale 0 to 100): 20
Plant response rating, Pigweed [10, 15]: 0
Plant response rating, Pigweed [10, 16]: 0
Plant response rating, Pigweed ([10]; 62 g ai/ha, scale 0 to 100): 0
Pigweed plant response rating ([10]; scale 0 to 100): 0
Plant response rating, Lambsquarters [11, 15]: 65
Plant response rating, Lambsquarters [11, 18]: 100
Plant response rating, Lambsquarters ([11]; 62 g ai/ha, scale 0 to 100): 100
Lambsquarters plant response rating ([11]; scale 0 to 100): 0
Plant response rating, Blackgrass [12, 15]: 0
Plant response rating, Blackgrass [12, 18]: 60
Plant response rating, Blackgrass ([12]; 62 g ai/ha, scale 0 to 100): 95
Blackgrass plant response rating ([12]; scale 0 to 100): 0
Plant response rating, Galium [13, 15]: 0
Galium plant response rating ([13]; scale 0 to 100): 0
Plant response rating, Foxtail, Green [14, 15]: 95
Plant response rating, Foxtail, Green [14, 18]: 98
Plant response rating, Foxtail, Green ([14]; 62 g ai/ha, scale 0 to 100): 100
Foxtail, Green plant response rating ([14]; scale 0 to 100): 0
